Laboratory results reported in US20100239669A1, “Combinations of statins and anti-obesity agent” (Scidose LLC, priority 2007, published 2010).

Experiment: Patient on atorvastatin with orlistat added (co-therapy)
Format: in vivo, human
Protocol: A patient on atorvastatin 80 mg once daily is found to still be in need of reducing weight, triglyceride, and cholesterol levels further. […] The patient is maintained on this regimen for 2 months and thereafter the atorvastatin dosage is reduced to 60 mg once daily at which the reductions previously obtained are maintained. The patient is then switched to a fixed combination dosage form of 120 mg orlistat and 60 mg atorvastatin once daily. A patient on atorvastatin 10 mg once daily is found to be in need of weight reduction and triglyceride reduction, although cholesterol levels are adequately maintained by the atorvastatin. Orlistat 120 mg once daily is added to the regimen and each of weight, triglycerides and cholesterol drop. […] The patient is then changed to a fixed combination of 120 mg orlistat and 5 mg of atorvastatin.

## CCCCCCCCCCC[C@@H](C[C@@H]1OC(=O)[C@H]1CCCCCC)OC(=O)[C@H](CC(C)C)NC=O [orlistat, N-formyl-L-leucine ester of (3S,4S)-3-hexyl-4-[(2S)-2-hydroxytridecyl]-2-oxetanone]
Example 1: 120 mg once daily orlistat added to atorvastatin 80 mg once daily
  weight, serum triglycerides, and cholesterol: begins to lower
Example 1: after 2 months atorvastatin reduced to 60 mg once daily, orlistat 120 mg once daily
  reductions previously obtained (weight, triglycerides, cholesterol): maintained
Example 2: after 6 weeks, 120 mg orlistat once daily and 5 mg atorvastatin once daily
  lowered weight, triglycerides, and cholesterol levels: surprisingly maintains
Example 2: orlistat 120 mg once daily added to atorvastatin 10 mg once daily
  weight, triglycerides and cholesterol: drop
